Holding throughout (format): cell-based
The subject of test [1] is Staphylococcus aureus X400. Kind of test: standard agar-dilution assay, MIC. Conditions: Staphylococcus aureus X400, methicillin resistant strain. As to the method:
(§1) The MIC's in Table III were determined by standard agar-dilutionassays. The MIC's in Table IV were obtained using a conventional broth-dilution microtiter test.
^c Methicillinresistant-strain

Test [2] deals with Haemophilus influenzae Holt. Kind of test: standard agar-dilution assay, MIC. Conditions: ampicillin sensitive strain. Here is the method:
as §1
^d Ampicillinsensitive strain

The subject of test [3] is Haemophilus influenzae R252. The experiment in a line: standard agar-dilution assay, MIC. Particulars: Haemophilus influenzae R252, ampicillin resistant strain. Here is the method:
as §1
^e Ampicillinresistant strain

Test [4] concerns Streptococcus Group D X66. The experiment in a line: standard agar-dilution assay, MIC. Here is the method:
as §1

For test [5], the system named is Staphylococcus epidermidis EPI2. Kind of test: standard agar-dilution assay, MIC. Here is the method:
as §1

The subject of test [6] is Streptococcus pneumoniae Park I. Kind of test: standard agar-dilution assay, MIC. Here is the method:
as §1

For test [7], the system named is Staphylococcus aureus X1.1. The experiment in a line: standard agar-dilution assay, MIC. Here is the method: as §1
Test [8] has as its system Staphylococcus aureus S13E. Kind of test: standard agar-dilution assay, MIC. As to the method: as §1
For test [9], the system named is Streptococcus pyogenes C203. Kind of test: standard agar-dilution assay, MIC. Here is the method: as §1
In the next test the test system is Streptococcus Group 9960. Kind of test: standard agar-dilution assay, MIC. Here is the method: as §1
Test [10] relates to Staphylococcus epidermidis EPI1. Kind of test: standard agar-dilution assay, MIC. As to the method: as §1
For another test, the system named is Mycoplasma hyorhinis. Kind of test: conventional broth-dilution microtiter test, MIC. As to the method: as §1
Test [11] deals with Pasteurella multocida 17E. The experiment in a line: conventional broth-dilution microtiter test, MIC. Conditions: bovine isolate. As to the method: as §1
The subject of the next test is Streptococcus sp. 80. The experiment in a line: conventional broth-dilution microtiter test, MIC. As to the method:
as §1

A further test relates to Mycoplasma gallisepticum. Kind of test: conventional broth-dilution microtiter test, MIC. As to the method:
as §1

The test system of test [12] is Pasteurella multocida 60A. The experiment in a line: conventional broth-dilution microtiter test, MIC. Particulars: avian isolate. As to the method:
as §1

The next test has as its system Staphylococcus aureus. The experiment in a line: conventional broth-dilution microtiter test, MIC. As to the method:
as §1

The test system of another test is Mycoplasma synoviae. The experiment in a line: conventional broth-dilution microtiter test, MIC. As to the method:
as §1

Test [13] concerns Staphylococcus aureus V41. Kind of test: standard agar-dilution assay, MIC. Particulars: Staphylococcus aureus V41, penicillin resistant strain. Here is the method: as §1
^b Penicillinresistant strain

The source of these data is patent publication US4436733A, “4"- And 3-ester derivatives of DMT and DMOT” (Eli Lilly and Company, priority 1982, dated 1984).

Take `CCC1OC(=O)CC(O)C(C)C(OC2OC(C)C(OC3CC(C)(O)C(OC(=O)Cc4ccccc4)C(C)O3)C(N(C)C)C2O)C(CC=O)CC(C)C(=O)C=CC(C)=CC1COC(=O)Cc1ccccc1` (centres unmarked) [Compound 6, 23,4"-Di-O-Phenylacetyl-DMT]: the “MIC (minimal inhibitory concentration)” value in test [1] is reported as 1; in [2] it was 64; in [3], 64; in test [4], 0.5; in [5], 1; in test [6] it was 0.125. In addition, the “MIC (minimal inhibitory concentration)” value stood at 1 in [7]; 1 in test [8]; 0.25 in test [9]; 0.5 in the test with Streptococcus Group 9960; 1 in test [10]; 0.195 in the test on Mycoplasma hyorhinis. Moreover, the “MIC (minimal inhibitory concentration)” value in test [11] was 50; in the test with Streptococcus sp. 80, 0.39; with Mycoplasma gallisepticum, ≤ 0.048; in [12], > 50; against Staphylococcus aureus it was 1.56; in the test with Mycoplasma synoviae, 0.39. In [13], the “MIC (minimal inhibitory concentration)” value worked out at 1.

For `CCC(=O)OC1C(C)OC(OC2C(C)OC(OC3C(CC=O)CC(C)C(=O)C=CC(C)=CC(COC(=O)C(Cl)(Cl)Cl)C(CC)OC(=O)CC(O)C3C)C(OC(C)=O)C2N(C)C)CC1(C)O` (centres unmarked) [Compound 14, 2'-O-Acetyl-4"-O-Propionyl-23-O-Trichloroacetyl-DMT], the “MIC (minimal inhibitory concentration)” value is 2 in test [1]; 8 in test [2]; 8 in [3]; 2 in test [4]; 2 in test [5]; 0.125 in test [6]. Moreover, the “MIC (minimal inhibitory concentration)” value in [7] amounted to 0.5; in test [8] it was 1; in test [9], 0.5; against Streptococcus Group 9960, 1; in [10], 0.5; against Mycoplasma hyorhinis it was 6.25. The “MIC (minimal inhibitory concentration)” value in test [11] is on record as 12.5; in the test with Streptococcus sp. 80 it was 1.56; against Mycoplasma gallisepticum, 0.39; in [12] it was 25; with Staphylococcus aureus, 1.56; against Mycoplasma synoviae it was 0.195. Moreover, the “MIC (minimal inhibitory concentration)” value in test [13] is given as 1.

For the compound `CCC(=O)OC1CC(=O)OC(CC)C(COC(=O)C(Cl)(Cl)Cl)C=C(C)C=CC(=O)C(C)CC(CC=O)C(OC2OC(C)C(OC3CC(C)(O)C(OC(=O)CC)C(C)O3)C(N(C)C)C2OC(C)=O)C1C` (centres unmarked) [Compound 15, 2'-O-Acetyl-3,4"-Di-O-Propionyl-23-O-Trichloroacetyl-DMT], the “MIC (minimal inhibitory concentration)” value was 1 in test [1]; 64 in test [2]; 32 in [3]; 2 in [4]; 1 in test [5]; 0.06 in [6]. In addition, the “MIC (minimal inhibitory concentration)” value in test [7] came out at 0.5; in test [8] it was 0.5; in test [9], 0.5; in the test with Streptococcus Group 9960 it was 1; in test [10] it was 0.5; in the test with Mycoplasma hyorhinis, 3.12. The “MIC (minimal inhibitory concentration)” value came out at 50 in test [11]; 1.56 in the test on Streptococcus sp. 80; 0.39 with Mycoplasma gallisepticum; 50 in test [12]; 1.56 against Staphylococcus aureus; 0.39 against Mycoplasma synoviae. Also, the “MIC (minimal inhibitory concentration)” value in test [13] is 1.

`CCC(=O)OC1C(C)OC(OC2C(C)OC(OC3C(CC=O)CC(C)C(=O)C=CC(C)=CC(CO)C(CC)OC(=O)CC(O)C3C)C(O)C2N(C)C)CC1(C)O` (centres unmarked) [Compound 16, 4"-O-Propionyl-DMT]: the “MIC (minimal inhibitory concentration)” value worked out at 1 in test [1]; 4 in test [2]; 2 in test [3]; 0.5 in [4]; 1 in test [5]; 0.06 in test [6]. Besides, the “MIC (minimal inhibitory concentration)” value is 0.5 in [7]; 0.5 in test [8]; 0.125 in test [9]; 0.5 with Streptococcus Group 9960; 0.5 in [10]; 0.5 in test [13].

With `CCC(=O)OC1CC(=O)OC(CC)C(CO)C=C(C)C=CC(=O)C(C)CC(CC=O)C(OC2OC(C)C(OC3CC(C)(O)C(OC(=O)CC)C(C)O3)C(N(C)C)C2O)C1C` (centres unmarked) [Compound 17, 3,4"-Di-O-Propionyl-DMT], the “MIC (minimal inhibitory concentration)” value in test [1] amounted to 1; in test [2], 16; in test [3], 8; in [4], 1; in test [5], 1; in test [6], 0.06. For the same compound, the “MIC (minimal inhibitory concentration)” value in [7] amounted to 0.5; in test [8], 0.5; in test [9] it was 0.25; in the test on Streptococcus Group 9960, 1; in test [10], 0.5; with Mycoplasma hyorhinis, 3.12. For the same compound, the “MIC (minimal inhibitory concentration)” value came to 25 in [11]; 0.78 in the test on Streptococcus sp. 80; 0.097 in the test on Mycoplasma gallisepticum; 50 in [12]; 1.56 against Staphylococcus aureus; 0.195 against Mycoplasma synoviae. Moreover, the “MIC (minimal inhibitory concentration)” value in test [13] is 1.

Regarding `CCC1OC(=O)CC(O)C(C)C(OC2OC(C)C(OC3CC(C)(O)C(OC(=O)CC(C)C)C(C)O3)C(N(C)C)C2OC(C)=O)C(CC=O)CC(C)C(=O)C=CC(C)=CC1C` (centres unmarked) [Compound 18, 2'-O-Acetyl-4"-O-Isovaleryl-DMOT], the “MIC (minimal inhibitory concentration)” value is on record as 1 in [1]; 32 in test [2]; 32 in test [3]; 1 in test [4]; 2 in test [5]; 0.06 in test [6]. Further, the “MIC (minimal inhibitory concentration)” value in test [7] is on record as 1; in test [8], 1; in test [9] it was 0.5; in the test with Streptococcus Group 9960 it was 1; in test [10], 1; in the test on Mycoplasma hyorhinis, 0.78. Also, the “MIC (minimal inhibitory concentration)” value in test [11] is reported as 12.5; against Streptococcus sp. 80 it was 0.39; against Mycoplasma gallisepticum, 0.39; in test [12] it was > 50; in the test on Staphylococcus aureus, 0.78; in [13] it was 1.

Consider `CCC1OC(=O)CC(O)C(C)C(OC2OC(C)C(OC3CC(C)(O)C(OC(=O)CC(C)C)C(C)O3)C(N(C)C)C2O)C(CC=O)CC(C)C(=O)C=CC(C)=CC1C` (centres unmarked) [Compound 19, 4"-O-Isovaleryl-DMOT], for which the “MIC (minimal inhibitory concentration)” value in test [1] was 1; in test [2], 8; in test [3] it was 8; in test [4] it was 1; in [5] it was 1; in test [6], 0.03. Further, the “MIC (minimal inhibitory concentration)” value was found to be 1 in test [7]; 1 in test [8]; 0.25 in test [9]; 1 against Streptococcus Group 9960; 1 in test [10]; 0.39 in the test on Mycoplasma hyorhinis. Further, the “MIC (minimal inhibitory concentration)” value worked out at 6.25 in test [11]; 0.195 in the test on Streptococcus sp. 80; 0.195 against Mycoplasma gallisepticum; 12.5 in test [12]; 3.12 against Staphylococcus aureus; 0.39 with Mycoplasma synoviae. In addition, in test [13], the “MIC (minimal inhibitory concentration)” value was determined as 1.
